The target of one experiment is T1, GPR84 (Homo sapiens, UniProt Q9NQS5).
T1 construct: expressed in transfected cells; membranes used
As to the kind of experiment: GTPγS binding assay (GPR84). In kind it is biochemical. The conditions noted are these: membranes from stable cell line over expressing GPR84; 3,3′ di indolylmethane at EC80. Put shortly: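 Membranes (20 μg/well) from a stable GPR84-overexpressing line, pre-incubated with 0.1 μM GDP for 15 min at 4° C, mixed with 0.1 nM [35S]GTPγS and WGA SpA beads in 20 mM HEPES pH 7.4, 5 mM MgCl2, 250 mM NaCl, 0.05% BSA, 75 ug/mL saponin; 90 min at room temperature, then scintillation counting.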
For orientation: GTPγS is a poorly hydrolysed GTP analogue; its binding reports G protein activation.

The test system of the next experiment is human neutrophils. As to the kind of experiment: Human neutrophil migration assay (embelin-induced). Conditions: neutrophils from human buffy coat, 30 min compound pre-incubation, migration towards embelin at EC80 for 1 h, ATPlite readout, read-out: human neutrophil migration inhibition (Neutrophils). It counts as cell-based. The procedure:
2. Cellular Assays 2.1. Human Neutrophil Migration Assay
The effect of agonists or antagonists for GPR84 can therefore be assayed in a neutrophil migration test. In the neutrophil migration assay, neutrophils, freshly isolated from buffy coats from human volunteers, are treated with a compound for 30 minutes. Subsequently, the neutrophils are transferred to the upper wells of a Corning HTS transwell 96 permeable support system, of which the lower wells are filled with a embelin solution at EC80 (concentration which gives 80% of the activity of GPR84). After 1 h of incubation, migration of the neutrophils towards embelin in the lower compartment can be quantified by measuring the ATP-content of the lower wells using the ATPlite luminescence ATP detection assay system (Perkin Elmer, Cat. No.: 436110).
A human buffy coat is diluted with an equal volume of ice cold DPBS. 20 mL of the diluted buffy coat is gently mixed with 4 mL of ACD buffer (140 mM citric acid, 200 mM sodium citrate and 220 mM dextrose). Then, 12 mL of the 6% dextran/0.9% NaCl solution (15 g dextran T2000 and 2.25 g NaCl dissolved in 250 mL H2O) is added to the mixture and the samples are inverted gently up to 20 times. The total volume was transferred to a new recipient and incubated at room temperature for 1 h for complete separation of the two phases to occur. The yellowish supernatant is then transferred to a clean centrifugation tube and centrifuged for 12 minutes at 1300 rpm and 4° C. After centrifugation, the supernatant is discarded and the remaining cell pellet is rapidly resuspended in 12 mL of ice-cold H2O for red blood cell lysis to occur. After 20 seconds, 4 mL of ice-cold 0.6 M KCl is added. Samples are mixed carefully and centrifuged for 6 minutes at 1300 rpm, 4° C. The supernatant is discarded and the red blood cell lysis procedure is repeated one more time. Subsequently, the cell pellet is resuspended in 4 mL of DPBS and layered over 5 mL of Lymphoprep (Nycomed Pharma, Cat. No.: 1114545) in a 15 mL centrifuge tube. After centrifugation for 12 min at 1300 rpm, 4° C., the supernatant is removed and the cell pellet, containing the neutrophils, is resuspended in 25 mL chemotaxis buffer (RPMI 1640 medium, supplemented with 10 mM HEPES; freshly made for each experiment)
A cell suspension of 8.9×10^6 cells per milliliter is prepared. 20 μL of compound solution in chemotaxis buffer is added to 180 μL cell suspension. The mixture is incubated at 37° C. for 30 minutes with intermediate resuspension of the cells after 15 minutes. Following this, 70 μL cell suspension is transferred to the upper compartment of a Corning HTS transwell 96 permeable support system with 5.0 μm pore size polycarbonate membrane (Corning, Cat. No.: 3387). The receiver well of the transwell system is then filled with 200 μL chemotaxis buffer containing compound and chemotactic agent (embelin). After incubation at 37° C. in 5% CO2 for 1 h, the upper plate of the transwell system is removed and the cell suspension in the receiver plate is transferred to a 96-well V-bottom plate. 50 μL of DPBS is added to the receiver plate to prevent remaining cells from drying out. The V-bottom plate is centrifuged for 6 minutes at 1500 rpm. The supernatant is removed and the cells are resuspended in 50 μL DPBS. The cells are then transferred back to the receiver plate of the transwell system. After this, 100 μL ATPlite solution (Perkin Elmer, Cat. No: 436110) was added to the cells. The plate is incubated for 10 minutes in the dark, while shaking. […] of cell lysate is then transferred to a white 96-well plate and luminescence is measured. The detected luminescent signal is considered as linearely related to the number of cells having migrated from the upper well to the receiver well.

SMILES strings stand for the structures. pIC50: −log10 of the molar value.

T1 sequence (Q9NQS5 whole entry): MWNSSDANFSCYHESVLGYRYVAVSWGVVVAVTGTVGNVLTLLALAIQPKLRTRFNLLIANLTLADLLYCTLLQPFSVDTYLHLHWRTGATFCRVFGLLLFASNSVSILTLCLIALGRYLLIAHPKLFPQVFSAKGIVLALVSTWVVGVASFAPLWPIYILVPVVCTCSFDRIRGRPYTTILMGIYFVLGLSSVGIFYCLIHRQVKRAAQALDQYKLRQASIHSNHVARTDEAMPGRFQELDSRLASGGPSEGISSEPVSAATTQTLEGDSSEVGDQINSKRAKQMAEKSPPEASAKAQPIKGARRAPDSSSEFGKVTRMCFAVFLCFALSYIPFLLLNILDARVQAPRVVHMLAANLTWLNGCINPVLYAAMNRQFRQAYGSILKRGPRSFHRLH

In the case of `CCCCCc1ccc2c(c1)CCn1c-2cc(OC[C@H]2COCCO2)nc1=O` [Compound 121, 2-((R)-1-[1,4]dioxan-2-ylmethoxy)-9-pentyl-6,7-dihydro-pyrimido[6,1-a]isoquinolin-4-one], the pIC50 at GPR84 is 7.00 to 11.00; in the experiment with human neutrophils, 6.30 to 7.00.
The matching figures for `O=c1nc(OCC2COCCO2)cc2n1CCc1cc(C#Cc3ccccn3)ccc1-2` (stereo not drawn) [Compound 36, 2-([1,4]dioxan-2-ylmethoxy)-9-pyridin-2-ylethynyl-6,7-dihydro-pyrimido[6,1-a]isoquinolin-4-one]: 7.00 to 11.00 and 6.30 to 7.00.
The matching figures for `CC(C)C(O)C#Cc1ccc2c(c1)CCn1c-2cc(OCC2COCCO2)nc1=O` (stereo not drawn) [Compound 90, 2-([1,4]Dioxan-2-ylmethoxy)-9-(3-hydroxy-4-methyl-pent-1-ynyl)-6,7-dihydro-pyrimido[6,1-a]isoquinolin-4-one]: 7.00 to 11.00 and 7.00 to 11.00.
In the case of `O=c1nc(OCC2COCCO2)cc2n1CCc1cc(CCCNc3ccccc3)ccc1-2` (stereo in doubt) [Compound 149, 2-((S)-1-[1,4]dioxan-2-ylmethoxy)-9-(3-phenylamino-propyl)-6,7-dihydro-pyrimido[6,1-a]isoquinolin-4-one], the pIC50 on GPR84 and in the experiment with human neutrophils was 7.00 to 11.00 in each case.
Turning to `Cn1cncc1C#Cc1ccc2c(c1)CCn1c-2cc(OCC2COCCO2)nc1=O` (stereo not drawn) [Compound 16, 2-([1,4]dioxan-2-ylmethoxy)-9-(3-methyl-3H-imidazol-4-ylethynyl)-6,7-dihydro-pyrimido[6,1-a]isoquinolin-4-one], the pIC50 at GPR84 and in the experiment on human neutrophils was 6.30 to 7.00 in each case.
In the case of `CC(O)CCCc1ccc2c(c1)CCn1c-2cc(OC[C@@H]2COCCO2)nc1=O` (stereo partly drawn) [Compound 150, 2-((S)-1-[1,4]dioxan-2-ylmethoxy)-9-(4-hydroxy-pentyl)-6,7-dihydro-pyrimido[6,1-a]isoquinolin-4-one], the values for the pIC50 at GPR84 and in the experiment on human neutrophils were 6.30 to 7.00 and 7.00 to 11.00, respectively.
Regarding `COCCCc1ccc2c(c1)CCn1c-2cc(OC[C@H]2COCCO2)nc1=O` [Compound 168, 2-((R)-1-[1,4]Dioxan-2-ylmethoxy)-9-(3-methoxy-propyl)-6,7-dihydro-pyrimido[6,1-a]isoquinolin-4-one], the pIC50 was 6.30 to 7.00 at GPR84 and 7.00 to 11.00 with human neutrophils.
On to `CNC(=O)c1ccc(-c2ccc3c(c2)CCn2c-3cc(OCC3COCCO3)nc2=O)cc1` (stereo not drawn) [Compound 42, 4-[2-([1,4]dioxan-2-ylmethoxy)-4-oxo-6,7-dihydro-4H-pyrimido[6,1-a]isoquinolin-9-yl]-N-methyl-benzamide], for which the pIC50 at GPR84 and in the experiment with human neutrophils was 6.30 to 7.00 each time.
As to `COCCCCc1ccc2c(c1)CCn1c-2cc(OC[C@@H]2COCCO2)nc1=O` [Compound 174, 2-((S)-1-[1,4]Dioxan-2-ylmethoxy)-9-(4-methoxy-butyl)-6,7-dihydro-pyrimido[6,1-a]isoquinolin-4-one], the pIC50 at GPR84 and with human neutrophils was 7.00 to 11.00 in each case.
Take `CC(C)C#Cc1ccc2c(c1)CCn1c-2cc(OCC2COCCO2)nc1=O` (stereo not drawn) [Compound 83, 2-([1,4]dioxan-2-ylmethoxy)-9-(3-methyl-but-1-ynyl)-6,7-dihydro-pyrimido[6,1-a]isoquinolin-4-one]: the pIC50 on GPR84 and with human neutrophils was 7.00 to 11.00 in each case.
Take `O=c1nc(OCC2COCCO2)cc2n1CCc1cc(C#CCNc3ccccc3)ccc1-2` (stereo not drawn) [Compound 107, 2-([1,4]dioxan-2-ylmethoxy)-9-(3-phenylamino-prop-1-ynyl)-6,7-dihydro-pyrimido[6,1-a]isoquinolin-4-one]: the pIC50 at GPR84 and with human neutrophils was 7.00 to 11.00 throughout.
For `CCCOCCOc1ccc2c(c1)CCn1c-2cc(OC[C@@H]2COCCO2)nc1=O` [Compound 170, 2-((S)-1-[1,4]Dioxan-2-ylmethoxy)-9-(2-propoxy-ethoxy)-6,7-dihydro-pyrimido[6,1-a]isoquinolin-4-one], the pIC50 on GPR84 and with human neutrophils was 7.00 to 11.00 in each case.

(Values after US10047083B2, “Dihydropyrimidinoisoquinolinones and pharmaceutical compositions thereof for the treatment of inflammatory disorders” (GALAPAGOS NV, priority 2011, dated 2018).)
